# Read-outs that look alike come from different tables or passages of the source.
# Assays:
# [1] = tested on: face allodynia in the infraorbital nerve ligation model; assay: Partial infraorbital nerve ligation model, reversal of face allodynia (head withdrawal threshold, von Frey); type: in vivo; conditions: Rattus norvegicus, po; per os; mean (S.E.M.); individual maximum post-dose reversals; combination in terms of doses of the individual components; read-out: ED50 (effective dose causing 50% reversal of the allodynia)
# Method: Infraorbital nerve ligation models, either by partial ligation or by the loose ligation of the whole nerve (chronic constriction injury) have been used as models of trigeminal neuralgia or trigeminal neuropathic pain. […] Male Sprague-Dawley rats weighing 200-220 g at surgery and 290-390 g at the time of testing were used. As primary read-outs of tactile pain sensitivity of the face, head withdrawal thresholds were measured by repeated stimulations using von Frey filaments (Touch Test Sensory Probes, Stoelting®). Before surgery, the rats were habituated to the testing for two weeks, first by handling (for 2 days) and then by repeated touching with von Frey filaments and finally determination of 50% head withdrawal thresholds (HWT) on three consecutive days. Rats with HWT<10 g at 2 out of 3 pre-surgery tests were not enrolled in the study. Sensitivity of the orofacial region was tested using calibrated von Frey filaments, with a series of filaments with bending force ranging between 0.4-14.8 g. […] HWTs were determined using Chaplan's up-down method, starting with the filament of 2 g bending force. […] The evaluated post-dose data (HWTs in gram) were converted to percent reversals, taking the simultaneous post-dose average HWT value of the vehicle treated group as 0% and the pre-surgery average value of animals involved in the test substance-treated group as 100%.
# [2] = tested on: periorbital allodynia in the dural inflammation model; assay: Dural inflammation (inflammatory soup) model, reversal of periorbital allodynia (periorbital threshold, von Frey); type: in vivo, rat; conditions: 90 min post-dose; for reversal of allodynia at the medium dose level: solo 0.6 mg/kg per os
# Excerpt: Male Sprague-Dawley rats weighing approximately 250 g at surgery were used. Rats were habituated and trained for 1-2 weeks and then fitted with a stainless-steel cannula (22GA, Plastics One) under isoflurane anesthesia. […] Special attention was given not to disturb the dura. A custom flange guide cannula (22GA, Plastics One) was inserted into the hole (cut 0.5 mm below pedestal). The cannula was fixed to the bone with small screws and dental cement. A dummy that extended just past the end of the guide cannula was inserted to prevent scar tissue from forming, and thus clogging the cannula. Animals were allowed 1-2 weeks of recovery before testing and infusions began. Periorbital thresholds (POT) were monitored 7-10 days after surgery to ensure the thresholds generally returned to pre-surgery baselines.
# While under isoflurane anesthesia, the infusion procedure proceeded over 5 consecutive days in which a Hamilton syringe attached to an infusion pump was used to deliver 15 μL of inflammatory soup over 8 minutes, at a rate of 1.759 μL/min. The Hamilton syringe was connected to tubing with a custom cannula injector at the tip; the syringe, tubing line, and injector were filled to the tip with inflammatory soup solution. The custom cannula injector was inserted into the flange cannula and the infusion started. The inflammatory soup contained 2 mM histamine, 2 mM bradykinin, 2 mM serotonin, and 0.2 mM prostaglandin E2 dissolved in saline.
# Only animals that developed sustained hypersensitivity and satisfied the periorbital sensitivity criteria (POT<2.5 g) were enrolled into the study and each week into test groups.
# Sensory testing was performed on testing days using von Frey filaments (Stoelting®, Wood Dale, Illinois) with reproducible calibrated buckling forces varying from 0.4-10 g utilizing Chaplan's up-down method. The specific fibers utilized were 3.61 (0.4 g), 3.84 (0.6 g), 4.08 (1 g), 4.31 (2 g), 4.56 (4 g), 4.74 (6 g), 4.93 (8 g), and 5.07 (10 g); 4.31 (2 g) was the starting fiber. Allodynia was tested by gently restraining the rat in the investigator's hand by holding the rat in one hand with fingers just behind the left forepaw, keeping the animal pressed against the investigator's chest. Fibers were applied by perpendicularly touching the rostral portion of the periorbital region (below the lower eye margin close to the rostral corner) causing slight buckling of the filament for approximately 5 seconds. Based on the response pattern and the force of the final filament, the withdrawal threshold (g) was calculated.
# On testing days, a blinded investigator tested periorbital sensitivity pre-dose, 45 min, 90 min, and 135 min after drug administration. […]
# [3] = Pharmacokinetic interaction study of lisinopril and memantine; type: in vivo; conditions: rat, serum
# Method: The statistical significance of differences between corresponding solo treatment and combination treatment mean values was evaluated by Student's unpaired t-test. The areas under the curve between TO (time of dosing) and last tested timepoint (135 min) were also calculated to assess the drug exposures in each animal (Table 2).
# cardiovascular system = assay: Cardiovascular telemetry in awake unrestrained normotensive rats; type: in vivo, rat; conditions: for Heart rate; difference from Vehicle treated, Mean / Mean arterial blood pressure; difference from Vehicle treated, Mean: oral gavage, post-dose period of 3-6 hours
# Method: The cardiovascular parameters of normotensive rats instrumented with telemetric devices were investigated to determine whether the observed in vivo pharmacodynamic synergy exists also for cardinal side effects of the drug components of the combination. As lisinopril is an antihypertensive drug, its vasodilator and antihypertensive effects or other related cardiovascular effects may be cardinal side effects. Therefore, a cardiovascular telemetry study was performed with lisinopril, memantine and their combination in rats. Male Sprague-Dawley rats weighing 250-300 g at the start of the investigations were used. The animals were housed individually in artificially lightened chambers with a 12 h light and dark cycle (lights on at 07:00) and an ambient temperature of 20-22° C. Radiotelemetric units comprising transmitters with built in sensors (Data Sciences International, USA, Type: HD-S11) were surgically implanted into rats under sodium pentobarbital (50 mg/kg, i.p.) induced anesthesia. The rat abdomen was opened by a midline laparotomy. After visualizing the aorta, it was separated from the vena cava just caudal to the left dorsal muscular branch. A piece of 5-0 suture was placed between the vena cava and aorta so that the suture lied underneath the aorta. By this suture the aorta was temporarily occluded, and the catheter introduced into the vessel. After drying the aorta around the catheter entry site, a small amount of tissue adhesive was applied and 5-10 seconds later the suture was loosened. The bipolar ECG leads were tunneled subcutaneously into Lead II position and fixed with surgical sutures. Closure of the abdomen and skin was followed by 7 days recovery period. […] Drug tests were performed on 8 rats used repeatedly according to a 4-way crossover design, carried out in three sessions. In each session, all the 8 animals were treated and tested on 4 occasions with 3- or 4-days washout periods between treatments (i.e. Mondays and Thursdays in two weeks), so that on each occasion 4 pairs of rats were treated with 4 types of treatment (vehicle control, test substance A, test substance B and combination A+B), and during the 4 occasions all the animals were given all the 4 types of treatment according to a Latin-square 4-way crossover design. In the three consecutive 2-week-long sessions, three dose levels of test substances were tested in an escalating order. […] For evaluation and data reduction, pre-dose 10-min, post-dose 30-min segment averages were calculated and plotted (FIG. 5). […] None of the test substance treatments caused any apparent effect on the body temperature as compared to vehicle control data. The stress of handling and oral gavage administration caused a transient increase in both blood pressure and heart rate as indicated by changes in the vehicle treated data. However, after these transient changes, blood pressure and heart rate returned to the pre-dose level in the vehicle control group. […] For within session statistical analysis of differences from vehicle control, one-way ANOVA followed by Dunnett's test was used.
# [4] = tested on: central nervous system (horizontal locomotor activity); assay: Locomotor activity test; type: in vivo, rat; conditions: 60-90 minutes post-dose
# Excerpt: Memantine is a neurological drug with neurological side effects at high doses, such as sedative or dissociative or psychotomimetic side effects in humans, and locomotion stimulating and motor coordination impairing effects in rodents. Therefore, as a further test to see if pharmacodynamic synergy exists also for cardinal side effects of the drug components of the combination two central nervous system side effect assessing pharmacodynamic interaction studies (locomotor activity and rotarod tests) were performed with lisinopril, memantine and their combination in rats. Male Sprague Dawley rats weighing 200-250 g at start of testing were used. Animals were acclimatized to the laboratory conditions for at least 5 days before the first experiment and kept under artificial lighting between 7:00 and 19:00 in a controlled ambient temperature of 22±2° C. One hundred animals were assigned to ten treatment groups, which were tested in parallel with appropriate randomization, time shifts and cohorts needed to exploit the capacity of test apparatus. […] Corresponding dose levels of the combination were half of the doses of the solo drug treatments. […] The test substances were dissolved in physiological saline for dosing volume of […]. The test substances were administered per os by gavage. First, the locomotor test was carried out. One week later, the same animals received the same treatment and were tested in the rotarod test. The locomotor activity test detects stimulant or sedative activity. The activity meter consisted of 16 covered Plexiglas cages (40×25×25 cm) contained within a darkened enclosure and connected to silent electronic counters. Each cage was equipped with four photocell assemblies (two at each end of the cage) 3 cm above the floor to measure the number of movements by each animal (one per cage) in the horizontal plane. The number of (horizontal) crossings by each animal (one per cage) from one pair of photocells to the other was recorded by computer in 10-minute intervals. […] The cumulated events in the period of 60-90 minutes post-dose were evaluated.
# [5] = tested on: central nervous system (rotarod performance); assay: Accelerating rotarod test; type: in vivo, rat; conditions: any of the three dose levels: 0.6, 2, 6 mg/kg solo; 0.3+0.3, 1+1, 3+3 mg/kg combination; per os; 45 and 90 min post-dose
# Method: Animals were acclimatized to the laboratory conditions for at least 5 days before the first experiment and kept under artificial lighting between 7:00 and 19:00 in a controlled ambient temperature of 22±2° C. One hundred animals were assigned to ten treatment groups, which were tested in parallel with appropriate randomization, time shifts and cohorts needed to exploit the capacity of test apparatus. The test groups comprised nine test substance treated groups, of three treatment types (lisinopril, memantine and their 1:1 combination), each administered at three dose levels, and a vehicle control group for comparison. Corresponding dose levels of the combination were half of the doses of the solo drug treatments. Thus, the tested dose levels were 0.6, 2 and 6 mg/kg for the solo treatments and 0.3+0.3, 1+1 and 3+3 mg/kg for the combination. The test substances were dissolved in physiological saline for dosing volume of 5 mg/kg. The test substances were administered per os by gavage. […] One week later, the same animals received the same treatment and were tested in the rotarod test.
# The rotarod test detects neurological deficits. Rats were placed on a rod (diameter: 7 cm) rotating at a constant speed of 4 revolutions per minute for a 2-minute period. When they fell off during this period they were replaced on the rod. […] The latency to fall off was recorded (cut-off: 3 minutes). […]
# [6] = Lisinopril 0.3 mg/kg, read-out: Concentration of Lisinopril, Mean
# [7] = Lisinopril 1 mg/kg, read-out: Concentration of Lisinopril, Mean
# [8] = dose 0.3 mg/kg (combination containing the same dose of lisinopril)
# [9] = dose 1 mg/kg (combination containing the same dose of lisinopril)
# [10] = dose 3 mg/kg (combination containing the same dose of lisinopril)
# [11] = Memantine 0.3 mg/kg, read-out: Concentration of Memantine, Mean
# [12] = Memantine 1 mg/kg, read-out: Concentration of Memantine, Mean
structure (smiles),measurement,setting,value
"NCCCC[C@H](N[C@@H](CCc1ccccc1)C(=O)O)C(=O)N1CCC[C@H]1C(=O)O [Lisinopril, (S)-1-[N2-(1-carboxy-3-phenylpropyl)-L-lysyl]-L-proline]",ED50,[1],0.488 mg/kg
same,ED40 (effective dose causing 40% reversal of the allodynia),[2]; per os,1.85 mg/kg
same,reversal of allodynia at the medium dose level,[2],around 15%
same,concentration at 45 min,[3]; [6],5.75 ng/mL
same,concentration at 90 min,[3]; [6],9.44 ng/mL
same,concentration at 135 min,[3]; [6],14.2 ng/mL
same,concentration at 45 min,[3]; [7],9.86 ng/mL
same,concentration at 90 min,[3]; [7],43 ng/mL
same,concentration at 135 min,[3]; [7],57 ng/mL
same,AUC(0-t),"[3]; dose 0.3 mg/kg, read-out: Mean AUC (AUC0-135 min) of Lisinopril, Solo (converted)",16.7 ng·h/mL
same,AUC(0-t),"[3]; dose 1 mg/kg, read-out: Mean AUC (AUC0-135 min) of Lisinopril, Solo (converted)",61 ng·h/mL
same,suppression of the blood pressure,"cardiovascular system; almost dose-independently, 0.3-3 mg/kg",about 7 mmHg
same,"Heart rate; difference from Vehicle treated, Mean",cardiovascular system; [8],8.37 beats per min
same,"Mean arterial blood pressure; difference from Vehicle treated, Mean",cardiovascular system; [8],−7.05 mmHg
same,"Heart rate; difference from Vehicle treated, Mean",cardiovascular system; [9],20.62 beats per min
same,"Mean arterial blood pressure; difference from Vehicle treated, Mean",cardiovascular system; [9],−7.47 mmHg
same,"Heart rate; difference from Vehicle treated, Mean",cardiovascular system; [10],29.39 beats per min
same,"Mean arterial blood pressure; difference from Vehicle treated, Mean",cardiovascular system; [10],−7.72 mmHg
same,effect on the locomotor activity,"[4]; any of the three dose levels: 0.6, 2, 6 mg/kg solo, 0.3+0.3, 1+1, 3+3 mg/kg combination, per os",neither lisinopril nor the combination exerted a significant effect
same,effect on rotarod performance (latency to fall off),[5],"neither lisinopril, nor memantine, nor their combination had a significant effect"
"CC12CC3CC(C)(C1)CC(N)(C3)C2 [Memantine, 1-amino-3,5-dimethyladamantane]",ED50,[1],0.478 mg/kg
same,reversing effect on the allodynia (percent reversal),"[2]; per os 0.2, 0.6 and 2 mg/kg",≤ 15%
same,reversal of allodynia at the medium dose level,[2],around 15%
same,concentration at 45 min,[3]; [11],5.58 ng/mL
same,concentration at 90 min,[3]; [11],8.46 ng/mL
same,concentration at 135 min,[3]; [11],8.91 ng/mL
same,concentration at 45 min,[3]; [12],11.4 ng/mL
same,concentration at 90 min,[3]; [12],22.3 ng/mL
same,concentration at 135 min,[3]; [12],24.2 ng/mL
same,AUC(0-t),"[3]; dose 0.3 mg/kg, read-out: Mean AUC (AUC0-135 min) of Memantine, Solo (converted)",13.9 ng·h/mL
same,AUC(0-t),"[3]; dose 1 mg/kg, read-out: Mean AUC (AUC0-135 min) of Memantine, Solo (converted)",34.4 ng·h/mL
same,"effect on hemodynamic parameters (blood pressure, heart rate)","cardiovascular system; 0.3, 1 and 3 mg/kg, combination compared with lisinopril",no effect
same,"Heart rate; difference from Vehicle treated, Mean",cardiovascular system; [8],−2.87 beats per min
same,"Mean arterial blood pressure; difference from Vehicle treated, Mean",cardiovascular system; [8],−1.39 mmHg
same,"Heart rate; difference from Vehicle treated, Mean",cardiovascular system; [9],−8.51 beats per min
same,"Mean arterial blood pressure; difference from Vehicle treated, Mean",cardiovascular system; [9],0.11 mmHg
same,"Heart rate; difference from Vehicle treated, Mean",cardiovascular system; [10],−3.03 beats per min
same,"Mean arterial blood pressure; difference from Vehicle treated, Mean",cardiovascular system; [10],−0.13 mmHg
same,effect on the locomotor activity,[4]; highest dose level (6 mg/kg per os),significant increase
same,effect on the locomotor activity,[4]; two lower dose levels (0.6 and 2 mg/kg per os),not at the two lower dose levels
same,effect on rotarod performance (latency to fall off),[5],"neither lisinopril, nor memantine, nor their combination had a significant effect"

# Source: patent publication US20250302802A1, “METHODS AND COMPOSITIONS” (VRG 145 ZRT., priority 2024, published 2025)
